Measurements published in patent US10597388B2, “Pyridazinone herbicides” (FMC CORPORATION, priority 2014, dated 2020).

Tests used:
Type in all cases: in vivo
[1] = system: waterhemp (common waterhemp, Amaranthus rudis); experiment: Test C greenhouse herbicide test, pre- and postemergence
Procedure, shortened: (§1)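 Preemergence: seeds sown in a loam soil–sand blend and sprayed with test chemicals in a non-phytotoxic solvent mixture containing surfactant. Postemergence: plants grown in peat-based medium and treated at 2 to 18 cm (1- to 4-leaf stage). After 13 to 15 d in a greenhouse, injury was visually rated 0–100 against controls.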

[2] = system: velvetleaf (Abutilon theophrasti); experiment: as above
Procedure, shortened: as §1

[3] = system: oilseed rape (Brassica napus); experiment: as above
Procedure, shortened: as §1

[4] = system: blackgrass (Alopecurus myosuroides); experiment: as above
Procedure, shortened: as §1

[5] = system: wheat (winter wheat, Triticum aestivum); experiment: as above
Procedure, shortened: as §1

[6] = system: corn (Zea mays); experiment: as above
Procedure, shortened: as §1

[7] = system: johnsongrass (Sorghum halepense); experiment: as above
Procedure, shortened: as §1

[8] = system: foxtail, giant (giant foxtail, Setaria faberii); experiment: as above
Procedure, shortened: as §1

[9] = system: barnyardgrass (Echinochloa crus-galli); experiment: as above
Procedure, shortened: as §1

[10] = system: morningglory (Ipomoea coccinea); experiment: as above
Procedure, shortened: as §1

[11] = system: nutsedge, yellow (yellow nutsedge, Cyperus esculentus); experiment: as above
Procedure, shortened: as §1

[12] = system: pigweed (Amaranthus retroflexus); experiment: as above
Procedure, shortened: as §1

[13] = system: crabgrass, large (large crabgrass, Digitaria sanguinalis); experiment: as above
Procedure, shortened: as §1

[14] = system: lambsquarters (Chenopodium album); experiment: as above
Procedure, shortened: as §1

[15] = system: oat, wild (wild oat, Avena fatua); experiment: Test C greenhouse herbicide test, postemergence; settings: for Plant response rating, Oat, Wild: Postemergence
Procedure, shortened: (§2)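 Postemergence foliar treatment, 1- to 4-leaf stage (2–18 cm), peat/vermiculite medium; greenhouse 13–15 d; visual rating vs controls, 0 = no effect, 100 = complete control; dash = no result.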

[16] = system: kochia (Kochia scoparia); experiment: Test C greenhouse herbicide test, postemergence; settings: for Plant response rating, Kochia: Postemergence
Procedure, shortened: as §2

[17] = Postemergence, 125 g ai/ha, scale 0 to 100, 0 is no effect, 100 is complete control
[18] = Postemergence, 250 g ai/ha, scale 0 to 100, 0 no effect, 100 complete control, 13 to 15 d
[19] = Preemergence, 31 g ai/ha, scale 0 to 100, 0 is no effect, 100 is complete control
[20] = Preemergence, 62 g ai/ha, scale 0 to 100, 0 is no effect, 100 is complete control
[21] = Preemergence, 125 g ai/ha, scale 0 to 100, 0 is no effect, 100 is complete control
[22] = Preemergence, 250 g ai/ha, scale 0 to 100 (0 no effect, 100 complete control)
[23] = postemergence, 62 g ai/ha, scale 0 to 100, 0 no effect, 100 complete control
[24] = Postemergence, 31 g ai/ha, 0 to 100 scale (0 no effect, 100 complete control)
[25] = 125 g ai/ha, scale 0 to 100, 0 is no effect, 100 is complete control
[26] = 250 g ai/ha, scale 0 to 100, 0 no effect, 100 complete control, 13 to 15 d

## CCOC(=O)Oc1c(C)nn(C)c(=O)c1-c1c(C)sc2c(C)cc(C)cc12 [Compound 83]
[1]; [17]
  Plant response rating, Waterhemp: 60
[1]; [18]
  Plant response rating, Waterhemp: 80
[1]; [19]
  Plant response rating, Waterhemp: 60
[1]; [20]
  Plant response rating, Waterhemp: 90
[1]; [21]
  Plant response rating, Waterhemp: 100
[1]; [22]
  Waterhemp plant response rating: 100
[1]; [23]
  Waterhemp plant response rating: 85
[2]; [17]
  Plant response rating, Velvetleaf: 90
[2]; [18]
  Plant response rating, Velvetleaf: 90
[2]; [19]
  Plant response rating, Velvetleaf: 35
[2]; [20]
  Plant response rating, Velvetleaf: 70
[2]; [21]
  Plant response rating, Velvetleaf: 85
[2]; [22]
  Velvetleaf plant response rating: 90
[2]; [23]
  Velvetleaf plant response rating: 90
[3]; [17]
  Plant response rating, Oilseed Rape: 45
[3]; [18]
  Plant response rating, Oilseed Rape: 70
[3]; [19]
  Plant response rating, Oilseed Rape: 0
[3]; [20]
  Plant response rating, Oilseed Rape: 0
[3]; [21]
  Plant response rating, Oilseed Rape: 50
[3]; [22]
  Oilseed Rape plant response rating: 50
[3]; [23]
  Oilseed Rape plant response rating: 0
[4]; [24]
  Blackgrass plant response rating: 40
[4]; [17]
  Plant response rating, Blackgrass: 90
[4]; [18]
  Plant response rating, Blackgrass: 90
[4]; [19]
  Plant response rating, Blackgrass: 70
[4]; [20]
  Plant response rating, Blackgrass: 80
[4]; [21]
  Plant response rating, Blackgrass: 80
[4]; [22]
  Blackgrass plant response rating: 90
[4]; [23]
  Blackgrass plant response rating: 80
[5]; [17]
  Plant response rating, Wheat: 0
[5]; [18]
  Plant response rating, Wheat: 0
[5]; [19]
  Plant response rating, Wheat: 0
[5]; [20]
  Plant response rating, Wheat: 0
[5]; [21]
  Plant response rating, Wheat: 0
[5]; [22]
  Wheat plant response rating: 0
[5]; [23]
  Wheat plant response rating: 0
[6]; [24]
  Corn plant response rating: 5
[6]; [17]
  Plant response rating, Corn: 10
[6]; [18]
  Plant response rating, Corn: 10
[6]; [19]
  Plant response rating, Corn: 0
[6]; [20]
  Plant response rating, Corn: 0
[6]; [21]
  Plant response rating, Corn: 0
[6]; [22]
  Corn plant response rating: 10
[6]; [23]
  Corn plant response rating: 5
[7]; [17]
  Plant response rating, Johnsongrass: 5
[7]; [18]
  Plant response rating, Johnsongrass: 10
[7]; [19]
  Plant response rating, Johnsongrass: 65
[7]; [20]
  Plant response rating, Johnsongrass: 75
[7]; [21]
  Plant response rating, Johnsongrass: 60
[7]; [22]
  Johnsongrass plant response rating: 70
[7]; [23]
  Johnsongrass plant response rating: 5
[8]; [17]
  Plant response rating, Foxtail, Giant: 85
[8]; [18]
  Plant response rating, Foxtail, Giant: 90
[8]; [19]
  Plant response rating, Foxtail, Giant: 85
[8]; [20]
  Plant response rating, Foxtail, Giant: 100
[8]; [21]
  Plant response rating, Foxtail, Giant: 100
[8]; [22]
  Foxtail, Giant plant response rating: 100
[8]; [23]
  Foxtail, Giant plant response rating: 85
[9]; [24]
  Barnyardgrass plant response rating: 25
[9]; [17]
  Plant response rating, Barnyardgrass: 30
[9]; [18]
  Plant response rating, Barnyardgrass: 45
[9]; [19]
  Plant response rating, Barnyardgrass: 50
[9]; [20]
  Plant response rating, Barnyardgrass: 70
[9]; [21]
  Plant response rating, Barnyardgrass: 85
[9]; [22]
  Barnyardgrass plant response rating: 90
[9]; [23]
  Barnyardgrass plant response rating: 25
[10]; [17]
  Plant response rating, Morningglory: 100
[10]; [18]
  Plant response rating, Morningglory: 98
[10]; [19]
  Plant response rating, Morningglory: 85
[10]; [20]
  Plant response rating, Morningglory: 90
[10]; [21]
  Plant response rating, Morningglory: 95
[10]; [22]
  Morningglory plant response rating: 98
[10]; [23]
  Morningglory plant response rating: 90
[11]; [17]
  Plant response rating, Nutsedge, Yellow: 85
[11]; [18]
  Plant response rating, Nutsedge, Yellow: 90
[11]; [19]
  Plant response rating, Nutsedge, Yellow: 85
[11]; [20]
  Plant response rating, Nutsedge, Yellow: 90
[11]; [21]
  Plant response rating, Nutsedge, Yellow: 85
[11]; [22]
  Nutsedge, Yellow plant response rating: 95
[11]; [23]
  Nutsedge, Yellow plant response rating: 80
[12]; [17]
  Plant response rating, Pigweed: 90
[12]; [18]
  Plant response rating, Pigweed: 90
[12]; [19]
  Plant response rating, Pigweed: 100
[12]; [20]
  Plant response rating, Pigweed: 100
[12]; [21]
  Plant response rating, Pigweed: 100
[12]; [22]
  Pigweed plant response rating: 100
[12]; [23]
  Pigweed plant response rating: 85
[13]; [17]
  Plant response rating, Crabgrass, Large: 40
[13]; [18]
  Plant response rating, Crabgrass, Large: 55
[13]; [19]
  Plant response rating, Crabgrass, Large: 75
[13]; [20]
  Plant response rating, Crabgrass, Large: 65
[13]; [21]
  Plant response rating, Crabgrass, Large: 70
[13]; [22]
  Crabgrass, Large plant response rating: 85
[13]; [23]
  Crabgrass, Large plant response rating: 25
[14]; [17]
  Plant response rating, Lambsquarters: 85
[14]; [18]
  Plant response rating, Lambsquarters: 98
[14]; [19]
  Plant response rating, Lambsquarters: 80
[14]; [20]
  Plant response rating, Lambsquarters: 85
[14]; [21]
  Plant response rating, Lambsquarters: 95
[14]; [22]
  Lambsquarters plant response rating: 100
[14]; [23]
  Lambsquarters plant response rating: 85
[15]; [25]
  Plant response rating, Oat, Wild: 90
[15]; [26]
  Plant response rating, Oat, Wild: 95
[15]; [23]
  Oat, Wild plant response rating: 90
[16]; [25]
  Plant response rating, Kochia: 65
[16]; [26]
  Plant response rating, Kochia: 80
[16]; [23]
  Kochia plant response rating: 60
